{"source": "patent US11135214B2", "about": "“Methods for enhancing the bio availability and exposure of a voltage-gated potassium channel opener” (priority 2018, dated 2021)", "test": "Food effect study, oral capsule, plasma PK in non-human primate", "format": "in vivo, Cynomolgus monkeys", "conditions": "for Cmax / Tmax / AUC(0-t) / AUC(0-inf) / AUClast / concentration at 0 h / concentration at 0.5 h / concentration at 1 h / concentration at 2 h / concentration at 4 h / concentration at 8 h / concentration at 12 h / concentration at 24 h / concentration at 48 h: 3 mg/kg; for AUC(0-inf): read-out: AUCinfobs; for concentration at 0 h / concentration at 0.5 h / concentration at 1 h / concentration at 2 h / concentration at 4 h / concentration at 8 h / concentration at 12 h / concentration at 24 h / concentration at 48 h: oral", "procedure": "The following study was conducted to determine the effect of food when Compound A is orally administered to a non-human primate.\nThree (n=3) Cynomolgus monkeys of Vietnamese origin were used in this study. At the time of initial dose administration, the monkeys weighed 4.7 to 5.1 kg and were about 4.5 years of age.\nA certified primate diet (Teklad® Certified Diet 2050C) was fed during the study. For Group 1, the three monkeys were fasted overnight with food returned 4 hours post-dose. For Group 2, the same three monkeys were fasted overnight and offered food about 1 hour prior to dosing and food was returned at 4 hours post-dose. The following Table 1 gives the food consumption for Group 2:\nThe oral dosage units consisted of about 3 mg/kg of Compound A in a capsule. The capsules were filled the morning of the dose administration and kept at room temperature until dosing. The remaining capsules were placed into the −20° C. storage.\nThe capsules were placed as far back in the animal's mouth as possible using a pill gun or a modified gavage tube. Approximately 10 mL of water was administered via syringe to ensure complete delivery of the intended dose. Each animal received 1 capsule per dose. The same animals were dosed twice with a 96 hour washout period between doses.\nGroup 1: All animals were weighed the afternoon prior to dose administration. Animal #2 struggled with dosing. After several attempts, the animal was given a short break and finally dosed successfully.\nGroup 2: All animals were weighed the morning of dose administration. All animals were dosed without incident.\nWhole blood (˜2.0 mL) was collected using syringe and needle from cephalic or saphenous veins and transferred into vacutainer tubes containing K2EDTA and kept on wet ice until processed for plasma. Blood samples were collected at time of dosing (0.0 hours, time zero) and at 0.5, 1, 2, 4, 8, 12, 24 and 48 hours post-dose.\nThe whole blood samples were placed in a K2EDTA tube and centrifuged at 3200 RPM for 10 minutes at approximately 5° C. Plasma samples were divided into 2 aliquots and each aliquot directly transferred to appropriately labeled, individual tubes containing study number, collection time point, animal ID number, and sample description. One aliquot was placed into storage at −20±5° C. until shipment for analysis. The other aliquot was retained at −20±5° C. Red blood cells were disposed.\nAll samples were processed per standard protocol for bioanalytical analysis.", "key": {"[1]": {"conditions": "Cynomolgus (Vietnamese origin), cynomolgus monkey, plasma, po, Group 2 (fed), 3 mg/kg capsule, individual subjects"}, "[2]": {"conditions": "Cynomolgus, Vietnamese origin, cynomolgus monkey, plasma, po, Group 1 (fasted), 3 mg/kg capsule, Mean"}, "[3]": {"conditions": "Group 1 (fasted), 3 mg/kg capsule, individual subjects"}, "[4]": {"conditions": "Group 2 (fed), 3 mg/kg capsule, individual subjects"}, "[5]": {"conditions": "cynomolgus monkey, plasma, Group 1 (fasted), N=3, read-out: Mean plasma concentration"}, "[6]": {"conditions": "cynomolgus monkey, plasma, Group 1 (fasted), N=3"}, "[7]": {"conditions": "cynomolgus monkey, plasma, Group 2 (fed), N=3, read-out: Mean plasma concentration"}, "[8]": {"conditions": "cynomolgus monkey, plasma, Group 2 (fed), N=3"}, "[9]": {"conditions": "cynomolgus monkey, plasma, fed, 3 mg/kg capsule, plasma, individual animals, read-out: Concentration"}}, "note": "“And” between values parts separate entries of the source, which are not always exact repeats. Identical values can stand only once. Like-named read-outs stand apart in the source and are kept apart here.", "data": [{"smiles": "Cc1cc(N2CCc3cc(F)ccc3C2)cc(C)c1NC(=O)CC(C)(C)C", "note": "[Compound A, N-[4-(6-fluoro-3,4-dihydro-1H-isoquinolin-2-yl)-2,6-dimethylphenyl]-3,3-dimethylbutanamide]", "values": [{"measurement": "Cmax", "setting": "Cynomolgus (Vietnamese origin), cynomolgus monkey, plasma, po, Group 2 (fed), 3 mg/kg capsule, Mean, read-out: Cmax", "value": 65.4, "unit": "ng/mL"}, {"measurement": "Tmax", "setting": "Cynomolgus (Vietnamese origin), cynomolgus monkey, plasma, po, Group 2 (fed), 3 mg/kg capsule, Mean, read-out: Tmax", "value": 8, "unit": "h"}, {"measurement": "AUC(0-t)", "setting": "[1]", "value": 1120, "unit": "ng·h/mL"}, {"measurement": "AUC(0-inf)", "setting": "[1]", "value": 1180, "unit": "ng·h/mL"}, {"measurement": "Cmax", "setting": "Cynomolgus (Vietnamese origin), cynomolgus monkey, plasma, po, Group 2 (fed), 3 mg/kg capsule, individual subjects, read-out: Cmax", "value": 50.4, "unit": "ng/mL"}, {"measurement": "AUC(0-t)", "setting": "[2]", "value": 1490, "unit": "ng·h/mL"}, {"measurement": "AUC(0-inf)", "setting": "[2]", "value": 913, "unit": "ng·h/mL"}, {"measurement": "Cmax", "setting": "Cynomolgus, Vietnamese origin, cynomolgus monkey, plasma, po, Group 1 (fasted), 3 mg/kg capsule, Mean, read-out: Cmax", "value": 55.7, "unit": "ng/mL"}, {"measurement": "Tmax", "setting": "Cynomolgus, Vietnamese origin, cynomolgus monkey, plasma, po, Group 1 (fasted), 3 mg/kg capsule, Mean, read-out: Tmax", "value": 10.7, "unit": "h"}, {"measurement": "Cmax", "setting": "Cynomolgus, Vietnamese origin, cynomolgus monkey, plasma, po, Group 1 (fasted), 3 mg/kg capsule, individual subjects, read-out: Cmax", "value": 75.1, "unit": "ng/mL"}, {"measurement": "Tmax", "setting": "Cynomolgus, Vietnamese origin, cynomolgus monkey, plasma, po, Group 1 (fasted), 3 mg/kg capsule, individual subjects, read-out: Tmax", "value": 12, "unit": "h"}, {"measurement": "t½λz", "setting": "Group 1 (fasted), 3 mg/kg capsule, Mean", "value": 9.7, "unit": "h"}, {"measurement": "t½λz", "setting": "[3]", "value": 9.7, "unit": "h"}, {"measurement": "AUClast", "setting": "[3]", "value": "1940 ng·h/mL and 1650 ng·h/mL and 869 ng·h/mL"}, {"measurement": "Cmax", "setting": "[3]", "value": "53.7 ng/mL and 38.4 ng/mL"}, {"measurement": "t½λz", "setting": "Group 2 (fed), 3 mg/kg capsule, Mean", "value": 10.1, "unit": "h"}, {"measurement": "t½λz", "setting": "[4]", "value": 10.1, "unit": "h"}, {"measurement": "AUClast", "setting": "[4]", "value": "2010 ng·h/mL and 1790 ng·h/mL"}, {"measurement": "Cmax", "setting": "[4]", "value": "67.5 ng/mL and 78.2 ng/mL"}, {"measurement": "Tmax", "setting": "[4]", "value": 4, "unit": "h"}, {"measurement": "concentration at 0 h", "setting": "[5]", "value": 0, "unit": "ng/mL"}, {"measurement": "concentration at 0.5 h", "setting": "[5]", "value": 0, "unit": "ng/mL"}, {"measurement": "concentration at 1 h", "setting": "[5]", "value": 6.89, "unit": "ng/mL"}, {"measurement": "concentration at 2 h", "setting": "[6]", "value": 15.3, "unit": "ng/mL"}, {"measurement": "concentration at 4 h", "setting": "[5]", "value": 16.6, "unit": "ng/mL"}, {"measurement": "concentration at 8 h", "setting": "[5]", "value": 49.9, "unit": "ng/mL"}, {"measurement": "concentration at 12 h", "setting": "[5]", "value": 55.7, "unit": "ng/mL"}, {"measurement": "concentration at 24 h", "setting": "[6]", "value": 42.5, "unit": "ng/mL"}, {"measurement": "concentration at 48 h", "setting": "[6]", "value": 8.94, "unit": "ng/mL"}, {"measurement": "concentration at 0 h", "setting": "[7]", "value": 0, "unit": "ng/mL"}, {"measurement": "concentration at 0.5 h", "setting": "[7]", "value": 0.35, "unit": "ng/mL"}, {"measurement": "concentration at 1 h", "setting": "[7]", "value": 1.25, "unit": "ng/mL"}, {"measurement": "concentration at 2 h", "setting": "[8]", "value": 7.73, "unit": "ng/mL"}, {"measurement": "concentration at 4 h", "setting": "[7]", "value": 44.3, "unit": "ng/mL"}, {"measurement": "concentration at 8 h", "setting": "[7]", "value": 55.4, "unit": "ng/mL"}, {"measurement": "concentration at 12 h", "setting": "[7]", "value": 52.8, "unit": "ng/mL"}, {"measurement": "concentration at 24 h", "setting": "[8]", "value": 45, "unit": "ng/mL"}, {"measurement": "concentration at 48 h", "setting": "[8]", "value": 11.6, "unit": "ng/mL"}, {"measurement": "concentration at 0 h", "setting": "[9]", "value": 0, "unit": "ng/mL"}, {"measurement": "concentration at 1 h", "setting": "[9]", "value": 1.05, "unit": "ng/mL"}, {"measurement": "concentration at 8 h", "setting": "[9]", "value": 50.4, "unit": "ng/mL"}, {"measurement": "concentration at 12 h", "setting": "[9]", "value": 48.8, "unit": "ng/mL"}, {"measurement": "AUC(0-inf)", "setting": "cynomolgus monkey, plasma, po, Group 1 (fasted), 3 mg/kg capsule, individual subjects", "value": 913, "unit": "ng·h/mL"}]}]}
